Measurements as given in the supplement of paper PMC10307832.

Tests used:
Experiment in all cases: relative viability (nuclei count vs DMSO), 5 days (fraction); higher = more cells survive
[1] = compound: C1CC2=C(C1)C=C(C=C2)OC3=NC(=C4C(=N3)N(C=N4)CC5=CC=C(C=C5)C6=CC=CC=C6)N[C@@H](CC7=CC=CC=C7)CO [QS11] + Cc1cc(Nc2cc(N3CCN(C)CC3)nc(Sc3ccc(NC(=O)C4CC4)cc3)n2)n[nH]1 [Tozasertib] (partner 0.1 µM)
Method in brief: (§1)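 Relative viability was taken as the ratio of nuclei in treated wells to nuclei in vehicle wells. Lung cancer cell lines in 1536-well plates received compounds by pin tool one day after seeding, either one drug alone or a fixed anchor-drug dose plus five library-drug doses (not always all listed) in √10 steps. Nuclei were counted on 4× images after 5 days of treatment, and values are medians of duplicate plates.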

[2] = compound: CC1=C(C=C(C=C1)NC(=O)C2=CC(=CC=C2)C(C)(C)C#N)NC3=CC4=C(C=C3)N=CN(C4=O)C [AZ628] + Nc1nc2[nH]cc(CCc3ccc(C(=O)N[C@@H](CCC(=O)O)C(=O)O)cc3)c2c(=O)[nH]1 [Pemetrexed] (partner 0.2 µM)
Method in brief: as §1

[3] = compound: C[As](C)SC[C@H](NC(=O)CC[C@H](N)C(=O)O)C(=O)NCC(=O)O [Darinaparsin] + Cc1nc(Nc2ncc(C(=O)Nc3c(C)cccc3Cl)s2)cc(N2CCN(CCO)CC2)n1 [Dasatinib] (partner 0.075 µM)
Method in brief: as §1

[4] = compound: C[As](C)SC[C@H](NC(=O)CC[C@H](N)C(=O)O)C(=O)NCC(=O)O [Darinaparsin] + Nc1nc2[nH]cc(CCc3ccc(C(=O)N[C@@H](CCC(=O)O)C(=O)O)cc3)c2c(=O)[nH]1 [Pemetrexed] (partner 0.2 µM)
Method in brief: as §1

Cell Line | relative viability ([1]; first compound 0.08 µM) | relative viability ([1]; first compound 0.253 µM) | relative viability ([1]; first compound 0.8 µM) | relative viability ([1]; first compound 2.53 µM) | relative viability ([1]; first compound 8 µM) | relative viability ([2]; first compound 0.08 µM) | relative viability ([2]; first compound 0.253 µM) | relative viability ([2]; first compound 0.8 µM) | relative viability ([2]; first compound 2.53 µM) | relative viability ([2]; first compound 8 µM) | relative viability ([3]; first compound 0.08 µM) | relative viability ([3]; first compound 0.8 µM) | relative viability ([3]; first compound 2.53 µM) | relative viability ([3]; first compound 8 µM) | relative viability ([4]; first compound 0.08 µM) | relative viability ([4]; first compound 0.8 µM) | relative viability ([4]; first compound 2.53 µM) | relative viability ([4]; first compound 8 µM)
NCI-H1355 | 0.569 | 0.564 | 0.425 | 0.452 | 0.413 | 1.06 | 1.02 | 0.843 | 0.996 | 0.716 | 0.717 | 0.69 | 0.596 | 0.689 | 1.16 | 1.08 | 0.906 | 1.07
HCC-15 | 0.363 | 0.523 | 0.385 | 0.257 | 0.312 | 0.231 | 0.204 | 0.211 | 0.226 | 0.206 | 0.675 | 0.562 | 0.577 | 0.628 | 0.223 | 0.221 | 0.211 | 0.213
HCC-78 | 0.404 | 0.57 | 0.401 | 0.462 | 0.449 | 0.95 | 0.905 | 0.892 | 0.89 | 0.915 | 0.382 | 0.384 | 0.375 | 0.386 | 0.953 | 0.884 | 0.838 | 0.964
NCI-H23 | 0.277 | 0.413 | 0.273 | 0.253 | 0.266 | 0.616 | 0.464 | 0.419 | 0.45 | 0.396 | 0.909 | 0.836 | 0.714 | 0.843 | 0.933 | 0.616 | 0.643 | 0.74
NCI-H838 | 0.293 | 0.276 | 0.232 | 0.224 | 0.209 | 0.261 | 0.23 | 0.243 | 0.242 | 0.225 | 0.301 | 0.286 | 0.271 | 0.338 | 0.272 | 0.223 | 0.245 | 0.247
NCI-H1793 | 0.305 | 0.328 | 0.257 | 0.32 | 0.338 | 1.16 | 0.617 | 0.971 | 0.757 | 0.522 | 0.421 | 0.366 | 0.348 | 0.424 | 1.01 | 0.89 | – | 1.05
COR-L23 | 0.17 | 0.177 | 0.137 | 0.156 | 0.141 | 0.22 | 0.23 | 0.198 | 0.219 | 0.21 | 0.694 | 0.493 | 0.39 | 0.497 | 0.198 | 0.209 | 0.18 | 0.2
ChaGo-K-1 | 0.232 | 0.256 | 0.238 | 0.216 | 0.23 | 0.27 | 0.277 | 0.262 | 0.298 | 0.243 | 0.525 | 0.611 | 0.72 | 0.649 | 0.251 | 0.266 | 0.271 | 0.263
LCLC-103H | 0.389 | 0.496 | 0.358 | 0.477 | 0.43 | 0.423 | 0.464 | 0.445 | 0.437 | 0.402 | 0.577 | 0.449 | 0.409 | 0.533 | 0.466 | 0.422 | 0.448 | 0.422
SW 1573 | 0.235 | 0.138 | 0.186 | 0.212 | 0.197 | 0.806 | 0.79 | 0.675 | 0.765 | 0.461 | 0.498 | 0.625 | 0.299 | 0.656 | 1 | 0.84 | 0.815 | 0.939
HARA | 0.0847 | 0.117 | – | 0.0916 | 0.102 | 0.255 | 0.221 | 0.226 | 0.231 | 0.193 | 0.3 | 0.282 | 0.232 | 0.259 | 0.269 | – | 0.22 | 0.294
NCI-H1755 | 0.617 | 0.555 | 0.454 | 0.515 | 0.411 | 0.421 | 0.434 | 0.403 | 0.579 | 0.353 | 0.438 | 0.448 | 0.346 | 0.468 | 0.552 | 0.389 | 0.411 | 0.656
NCI-H460 | 0.3 | 0.446 | – | 0.0921 | 0.143 | 0.0707 | 0.055 | 0.0564 | 0.0595 | 0.0641 | 0.632 | 0.478 | 0.473 | 0.721 | 0.0581 | 0.0587 | 0.0655 | 0.0643
NCI-H2170 | 0.803 | 0.662 | 0.671 | 0.742 | 0.721 | 0.285 | 0.259 | 0.267 | 0.3 | 0.266 | 0.65 | 0.612 | 0.481 | 0.647 | 0.32 | 0.267 | 0.389 | 0.287
NCI-H3122 | 0.45 | 0.496 | – | 0.374 | 0.201 | 0.185 | 0.166 | 0.161 | 0.159 | 0.151 | 0.998 | 0.73 | 0.71 | 0.968 | 0.195 | 0.193 | 0.197 | 0.222
COR-L 105 | 0.364 | 0.296 | 0.335 | 0.391 | 0.336 | 1.35 | 1.03 | 1.18 | 1.16 | 1.03 | 0.32 | 0.31 | 0.309 | 0.277 | 1.39 | 1.21 | 0.913 | 1.27
NCI-H2087 | 0.245 | 0.225 | – | 0.243 | 0.265 | 0.671 | 0.632 | 0.604 | 0.501 | 0.281 | 1.11 | 0.906 | 0.793 | 1.52 | 0.656 | 0.671 | 0.667 | 0.616
HCC-366 | 0.133 | 0.0935 | – | 0.0603 | 0.0521 | 0.156 | 0.215 | 0.225 | 0.169 | 0.161 | 0.709 | 0.758 | 0.734 | 1.07 | 0.18 | – | 0.15 | 0.2
